Residues, ends and D or L forms follow the SMILES beside them. *: point of attachment. Biotin = O=C1N[C@H]2[C@H](CS[C@H]2CCCCC(=O)*)N1
Columns and labels:
cpHaloΔ3-SiR = assay: Bio-layer interferometry binding kinetics, biotin-Hpep with cpHaloΔ3-SiR; conditions: BLI, 25 °C, 1:1 global fit; for Kd: biotin-Hpep 50 nM immobilised, cpHalo∆3-SiR 300–2 nM; for koff / kon: biotin-Hpep, cpHalo∆3-SiR
Description: (§1) After incubation, Hpep1 was removed by IMAC purification on a gravity flow column and buffer was exchanged to activity buffer using Amicon Ultra-15 Centrifugal Filter Unit. The protein labeling was verified by SDS-PAGE, comparing Coomassie blue staining and in-gel fluorescence (Supplementary Fig. 19). Protein labeling and Hpep1 removal were further verified by HRMS as previously explained.
(§2) Bio-layer interferometry (BLI) analysis was performed in a 96-well plate using an Octet® R4 system (Sartorius) with an acquisition rate for standard kinetics of 5.0 Hz at 25 °C. […] The raw data was analyzed using Octet® Analysis Studio (Sartorius). For data correction, response curves were baseline-aligned by subtracting the average signal of the baseline step and Savitzky–Golay filtering was used to remove high-frequency noise from the data.

cpHaloΔ3-TMR = assay: Bio-layer interferometry binding kinetics, biotin-Hpep with cpHaloΔ3-TMR; conditions: BLI, 25 °C, 1:1 global fit; for Kd: biotin-Hpep 50 nM immobilised, cpHalo∆3-TMR 300–2 nM; for koff / kon: biotin-Hpep, cpHalo∆3-TMR
Description: as §1, §2

cpHaloΔ = system: cpHaloΔ; design: method as in 2 sources, one per row (each row's own in cited_ref): ref 4 (Huppertz et al., Science 2024) ||| ref PhD thesis of Jonas Wilhelm; conditions: CA-TMR labeling kinetics, TEVp-cleaved cpHalo∆; 500 nM cpHaloΔ protein, 100 nM CA-TMR (EC50 >1 μM); ref 4 (Huppertz et al., Science 2024); read-out: EC50 for the parental cpHalo∆; cited from earlier work
cpHaloΔ, sequence (P0A3G2 4-141 L47V/S58T/D78G/Y87F/L88M/C128F): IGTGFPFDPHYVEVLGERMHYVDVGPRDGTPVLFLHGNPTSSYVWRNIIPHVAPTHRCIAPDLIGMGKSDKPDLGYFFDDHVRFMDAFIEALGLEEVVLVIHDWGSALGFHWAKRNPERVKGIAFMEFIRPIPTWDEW
cpHaloΔ, sequence (P0A3G2 156-290 E160K/A167V/A172T/K175M/C176G/K195N/A224E/N227D/E257K/T264A/H272N/Y273L): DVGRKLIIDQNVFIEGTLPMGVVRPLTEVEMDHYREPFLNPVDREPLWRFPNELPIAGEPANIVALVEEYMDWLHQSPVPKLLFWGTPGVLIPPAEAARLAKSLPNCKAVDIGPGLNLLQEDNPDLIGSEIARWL

CSCC[C@H](NC(=O)[C@H](CCC(=O)O)NC(=O)[C@H](CCCNC(=N)N)NC(=O)[C@H](Cc1c[nH]c2ccccc12)NC(=O)[C@H](CO)NC(=O)[C@H](Cc1c[nH]c2ccccc12)NC(=O)CNC(=O)[C@H](CCCNC(=N)N)NC(=O)CCCC[C@@H]1SC[C@@H]2NC(=O)N[C@@H]21)C(=O)N[C@@H](Cc1ccccc1)C(=O)N[C@@H](CCCNC(=N)N)C(=O)N[C@@H](CC(C)C)C(=O)N[C@@H](Cc1ccccc1)C(=O)N[C@@H](CCCNC(=N)N)C(=O)N[C@H](C(=O)O)[C@@H](C)O [biotin-Hpep9] (Biotin-RGWSWREMFRLFRT-OH)
Kd (cpHaloΔ3-SiR): 0.0188 µM | koff (cpHaloΔ3-SiR): 0.00149 s⁻¹ | kon (cpHaloΔ3-SiR): 78900 M⁻¹ s⁻¹ | Kd (cpHaloΔ3-TMR): 0.00486 µM | koff (cpHaloΔ3-TMR): 0.00104 s⁻¹ | kon (cpHaloΔ3-TMR): 214000 M⁻¹ s⁻¹

CSCC[C@H](NC(=O)[C@H](CCC(=O)O)NC(=O)[C@H](CCCNC(=N)N)NC(=O)[C@H](Cc1c[nH]c2ccccc12)NC(=O)[C@H](CC(=O)O)NC(=O)[C@H](CCCNC(=N)N)NC(=O)[C@H](CCCCN)NC(=O)[C@H](CO)NC(=O)CCCC[C@@H]1SC[C@@H]2NC(=O)N[C@@H]21)C(=O)N[C@@H](Cc1ccccc1)C(=O)N[C@@H](CCCNC(=N)N)C(=O)N[C@@H](CC(C)C)C(=O)N[C@@H](Cc1ccccc1)C(=O)N[C@@H](CCCNC(=N)N)C(=O)N[C@H](C(=O)O)[C@@H](C)O [biotin-Hpep11] (Biotin-SKRDWREMFRLFRT-OH)
Kd (cpHaloΔ3-SiR): 0.00427 µM | koff (cpHaloΔ3-SiR): 0.000214 s⁻¹ | kon (cpHaloΔ3-SiR): 50000 M⁻¹ s⁻¹ | Kd (cpHaloΔ3-TMR): 0.0106 µM | koff (cpHaloΔ3-TMR): 0.000687 s⁻¹ | kon (cpHaloΔ3-TMR): 64900 M⁻¹ s⁻¹

AREMFQAFRT [Hpep2, previously reported split-HaloTag peptide, […]]
EC50 (cpHaloΔ): 1120 µM

ARETFQAFRT [Hpep1, previously reported split-HaloTag peptide, […]]
EC50 (cpHaloΔ): 2980 µM

SKRDAREMFQAFRT [Hpep3, previously reported split-HaloTag peptide, […]]
EC50 (cpHaloΔ): 149 µM

WKEEVIKAFKLFRD [Hpep4, previously reported split-HaloTag peptide, […]]
EC50 (cpHaloΔ): 21 µM

WREEVRKAFKLFRQ [Hpep5, previously reported split-HaloTag peptide, […]]
EC50 (cpHaloΔ): 10.7 µM

WRETFQLFRT [Hpep6, previously reported split-HaloTag peptide, […]]
EC50 (cpHaloΔ): 2.39 µM

— article PMC13022382, “A high-affinity split-HaloTag for live-cell protein labeling” (Nature Communications, 2026)
